Patent US4713453A, “Oxabicycloheptane derivatives” (Suntori Limited, priority 1986, dated 1987)
In brackets after ≈: the same amount, converted by molar mass. Where two headings read alike, the source gives them in different places.

Tests used:
[1] = test system: rabbit platelet rich plasma; experiment: Effect on in vitro platelet aggregation; format: cell-based, rabbit (male Japanese white); conditions: Oryctolagus cuniculus, Platelet
Description: 5. Effect on in vitro platelet aggregation Arterial blood was drawn from the ear artery of male Japanese white rabbits. Platelet rich plasma (PRP) was prepared by centrifugation of 9 ml of blood mixed with 1 ml of 3.8% sodium citrate as anticoagulant. Platelet aggregation was measured optically according to Born's method. ADP (10 μM), collagen (37.5 μg/ml), platelet activating factor (PAF, 0.11 nM) and calcium ionophore A 23187 (1 μg/ml) were used as platelet aggregators. Test compounds were added 1 minute prior to the addition of aggregating agents.

[2] = test system: rabbit platelet rich plasma; experiment: Effect on in vitro platelet aggregation; format: cell-based, rabbit (male Japanese white); conditions: Oryctolagus cuniculus, aggregator AA, read-out: Anti-platelet aggregation IC50, AA
Male ddY mice [3] = experiment: Anti-hypoxia effect (brain protection in low-oxygen state after evacuation): survival time; format: in vivo, mouse (male ddY); conditions: intraperitoneal, 180 mmHg
Description: 2. Anti-hypoxia effect (i.e., […] protection in low-oxygen state after evacuation)
Male ddY m8mice weighing 22-30 g were used in groups each consisting of 7-10 animals. The mice were placed in a desiccator (capacity: ca. 1,000 ml) which was evacuated with a vacuum pump to an internal pressure of 180 mmHg after intraperitoneal administration of test compounds. The survival time, or the duration of time between the start of evacuation and the cessation of breathing, was measured, and this was compared with the value for a vehicle group. Any survival time longer than a period of 15 minutes after application of a hypoxia load was counted as 15 minutes.

peroxylipid formation = experiment: Anti-lipidperoxidation effect (TBA assay of malondialdehyde in rat brain homogenate); format: biochemical, rat (male Wistar); conditions: for Inhibition of peroxylipid formation: 10 μl (10^-4 M) test compound in 990 μl sample, 37° C., 30 minutes, pH 7.4; for anti-lipidperoxidation effects: rat brain homogenate
Description: 3. Anti-lipidperoxidation effect
Male Wistar rats weighing 200-250 g were used. The brain of each rat was extracted after decapitation, homogenized with 50 mM of a phosphate buffer solution (PBS, pH 7.4) and centrifuged at 1,000 g for 15 minutes. The supernatant was stored frozen at -30° C. Before use, it was thawed under flowing water and diluted with PBS three-fold to prepare a live sample.
Two samples were prepared by adding 10 μl (10^-4 M) of a test compound in solution to 990 μl of the live sample. One sample was incubated at 37° C. for 30 minutes and reaction was quenched by addition of 0.2 ml of 35% aqueous perchloric acid. The other sample was immediately mixed with 35% perchloric acid without incubation. Each of the mixtures was centrifuged at 3,000 rpm for 15 minutes and 0.5 ml of the supernatant was subjected to TBA assay (Yagi et al., Anal. Biochem., 95, 351 (1979)) for determining the malondialdehyde (MDA) content (×10^-4 M) by subtracting the peroxylipid level for the unincubated mixture from that for the incubated mixture. The percent inhibition of peroxylipid formation was calculated by the following formula: [formula] where A is the MDA content of a treated sample and B is the value for a control sample that was not treated with any test compound.

Male ddY mice [4] = experiment: Anti-cerebroischemic effect (brain protection after ischemia by decapitation): gasping time; format: in vivo, mouse (male ddY); conditions: intraperitoneal, 30 min before decapitation
Description: 1. Anti-cerebroischemic effect (i.e., brain protection after ischemia by decapitation)
Male ddY mice weighing 22-30 g were used in groups each consisting of 6 animals. Test compounds were administered intraperitoneally to the mice which were decapitated 30 minutes after the administration. The gasping time, or the duration of time between the onset of panting after decapitation and its cessation, was measured, and this was compared with the gasping time for a control group which were given only a liquid vehicle.

[5] = test system: scopolamine amnesia mouse; experiment: Anti-amnesia effect (scopolamine-induced retrograde amnesia), step-through passive avoidance; format: in vivo, mouse (male ddY); conditions: ip, 24 h, significant prolongation of step-through latency, intraperitoneal, scopolamine 0.5 mg/kg s.c., read-out: Minimum effective amount
Description: 6a. Anti-amnesia effect (i.e., capability of preventing scopolamine-inducedretrograde amnesia)
Five-week old male ddY weighing 25-30 g were used in groups each consisting of 10 animals. Memory retention deficit induced by scopolamine was evaluated by two-compartment step-through passive avoidance task. […] The floor of the dark compartment was provided with a current-conducting grid.
The experimental method was as follows. A scopolamine amnesia mouse that had been given subcutaneous injection of 0.5 mg/kg of an aqueous solution of scopolamine borate 20 minutes before was placed in the light compartment and when its forefeet touched the grid floor of the dark compartment, a current of 0.6 mA was applied to give a foot shock to the mouse (acquired conation). Immediately thereafter, a selected test compound or a control (physiological saline solution) was administered intraperitoneally. Twenty-four hours later, the mouse was replaced in the light compartment and the step-through latency, or the time required for the mouse to move to the dark compartment, was measured for a period of up to 300 seconds (test conation). The minimum effective amount of the test compound that provided a significant prolongation of the step-through latency over the control was determined.

[6] = aggregator ADP (10 μM), read-out: Anti-platelet aggregation IC50, ADP
[7] = aggregator PAF (0.11 nM), read-out: Anti-platelet aggregation IC50, PAF
[8] = aggregator calcium ionophore A 23187 (1 μg/ml), read-out: Anti-platelet aggregation IC50, A 23187
[9] = aggregator collagen (37.5 μg/ml), read-out: Anti-platelet aggregation IC50, Collagen

| Compound | prolongation of survival time (Male ddY mice [3]; 12.5 mg/kg) | Inhibition of peroxylipid formation (peroxylipid formation) [%] | prolongation of gasping time (Male ddY mice [4]; 25 mg/kg) | minimal effective dose [5] [mg/kg] | also measured |
| --- | --- | --- | --- | --- | --- |
| CN(C)CCCN1c2ccccc2Sc2ccc(Cl)cc21 [Chlorpromazine] | – | – | – | – | IC50 [1, 6]: 57 µg/mL (≈ 179 µM); IC50 [1, 7]: 93 µg/mL (≈ 292 µM); IC50 [1, 8]: 125 µg/mL (≈ 392 µM); IC50 [1, 9]: 22 µg/mL (≈ 69 µM); IC50 [2]: 105 µg/mL (≈ 329 µM) |
| CC(CON=C1c2ccccc2OC2(c3ccccc3)CC12)CN(C)C (stereo not drawn) [Example 4, 3,4-Benzo-5-(3-dimethylamino-2-methylpropyl)-oxyimino-1-phenyl-2-oxabicyclo[4.1.0]heptane] | significantly prolonging the survival time | 56.0 | – | – | – |
| c1ccc(C23CC2C(=NOCCC24CCCN2CCC4)c2ccccc2O3)cc1 (stereo not drawn) [Example 5, 3,4-Benzo-5-(2-pyrrolizidin-8-ylethyl)oxyimino-1-phenyl-2-oxabicyclo[4.1.0]heptane] | significantly prolonging the survival time | 96.5 | – | – | anti-lipidperoxidation effects (peroxylipid formation): strong anti-lipidperoxidation effects |
| COc1ccc2c(c1)OC1(c3ccccc3)CC1C2=NOCCN(C)C (stereo not drawn) [Example 7, 3,4-(3-Methoxybenzo)-5-(2-dimethylaminoethyl)oxyimino-1-phenyl-2-oxabicyclo[4.1.0]heptane] | – | – | significantly prolonging the gasping time | 20 | – |
| CN(C)CCCON=C1c2ccccc2OC2(c3cccs3)CC12 (stereo not drawn) [Example 11, 3,4-Benzo-5-(3-dimethylaminopropylo)xyimino-1-thienyl-2-oxabicyclo[4.1.0]heptane] | significantly prolonging the survival time | – | – | – | – |
| CNCCCON=C1c2ccccc2OC2(c3ccccc3)CC12 (stereo not drawn) [Example 15, 3,4-Benzo-5-(3-methylaminopropyl)oxyimino-1-phenyl-2-oxabicyclo[4.1.0]heptane] | significantly prolonging the survival time | 85.7 | – | – | anti-lipidperoxidation effects (peroxylipid formation): strong anti-lipidperoxidation effects |
| CN(C)CCCCCON=C1c2ccccc2OC2(c3ccccc3)CC12 (stereo not drawn) [Example 21, 3,4-Benzo-5-(5-dimethylaminopentyl)oxyimino-1-phenyl-2-oxabicyclo[4.1.0]heptane] | significantly prolonging the survival time | 62.1 | significantly prolonging the gasping time | 25 | prolongation of gasping time (Male ddY mice [4]; 12.5 mg/kg): significant prolongation of the gasping time |
| CN(C)CCOC1c2ccccc2OC2(c3ccccc3)CC12 (stereo not drawn) [Example 23, 3,4-Benzo-5-(2-dimethylaminoethyl)oxy-1-phenyl-2-oxabicyclo[4.1.0]heptane] | – | – | significantly prolonging the gasping time | 50 | prolongation of gasping time (Male ddY mice [4]; 12.5 mg/kg): significant prolongation of the gasping time |
| COc1ccc2c(c1)OC1(c3ccccc3)CC1C2OCCN(C)C (stereo not drawn) [Example 28, 3,4-(3-Methoxybenzo)-5-(2-dimethylaminoethyl)oxy-1-phenyl-2-oxabicyclo[4.1.0]heptane] | – | 77.6 | significantly prolonging the gasping time | 12.5 | prolongation of gasping time (Male ddY mice [4]; 12.5 mg/kg): significant prolongation of the gasping time |
| CN(C)CCCCOC1c2ccccc2OC2(c3ccccc3)CC12 (stereo not drawn) [Example 30, 3,4-Benzo-5-(4-dimethylaminobutyl)oxy-1-phenyl-2-oxabicyclo[4.1.0]heptane] | significantly prolonging the survival time | – | significantly prolonging the gasping time | 12.5 | prolongation of survival time (Male ddY mice [3]; 6.25 mg/kg or smaller): significant prolongation of the survival time |
| CN(C)CCCCCCOC1c2ccccc2OC2(c3ccccc3)CC12 (stereo not drawn) [Example 31] | significantly prolonging the survival time | – | – | – | prolongation of survival time (Male ddY mice [3]; 6.25 mg/kg or smaller): significant prolongation of the survival time |
| NCCCCCCNS(=O)(=O)c1cccc2c(Cl)cccc12 [Example W-7] | – | – | – | – | IC50 [1, 6]: 18 µg/mL (≈ 52.8 µM); IC50 [1, 7]: 27 µg/mL (≈ 79.2 µM); IC50 [1, 8]: 19 µg/mL (≈ 55.7 µM); IC50 [1, 9]: 11 µg/mL (≈ 32.3 µM); IC50 [2]: 11 µg/mL (≈ 32.3 µM) |
